Source: PMC12469269, “Investigating SMR Peptide Interactions with Breast Cancer-Associated Proteins” (International Journal of Molecular Sciences, 2025)
“Also recorded” adds a separate entry of the source.

Experiments:
Vimentin = test: SPR competition: SMRwt binding to immobilized Vimentin with Mortalin peptides; parameters: species or system Human; settings: 20 µM SMRwt + 20 µM Mortalin peptide, 25 °C, HBS-P pH 7.4
Experimental: Both Vimentin and Mortalin were immobilized as ligands. We used 20 µM of SMRwt alone and 20 µM of Mortalin peptides alone, and their mixtures were used as analytes.
Figure 9 Competitive binding of SMR and Mortalin peptides to Vimentin and Mortalin proteins. Binding of SMRwt to immobilized Vimentin in the presence and absence of (A) Mortalin peptide #56, (B) Mortalin peptide #61, and (C) Mortalin peptide #62. Binding of SMRwt to immobilized Mortalin in the presence and absence of (D) Mortalin peptide #56, (E) Mortalin peptide #61, and (F) Mortalin peptide #62. SMRwt alone, as well as a mixture of His-tagged Mortalin peptides #56, #61, and #62 were injected as analytes to flow over the immobilized ligand surfaces. […] Vimentin and Mortalin proteins were immobilized as ligands on a CM5 sensor chip using standard amine coupling chemistry.
SPR experiments were conducted using a Biacore T200 instrument (Cytiva, Marlborough, MA, USA). CM5 sensor chips (Cytiva) were used to immobilize proteins and run subsequent binding assays at 25 °C. To investigate the direct binding of Nef and SMR peptides to Vimentin and Mortalin and SMR competition studies, both proteins were immobilized as ligands on the active flow cells (FCs) using standard amine coupling chemistry. […] Sensorgrams recorded for kinetics analyses were fitted to a 1:1 binding model using the Biacore T200 evaluation software version 3.2.1. […]

[1] = tested on: exNef-GFP secretion in MDA-MB-231, MCF-7, BT474 BC cells and Jurkat T cells; test: Nef-driven exNef-GFP secretion (Figure 3), three BC cell lines and Jurkat T cells; assay type: cell-based, human
Experimental: Figure 3 Effects of Mortalin-derived peptides on viral Nef-driven exNef secretion. (A) MDA-MB-231, (B) MCF-7, (C) BT474 BC cells, and (D) Jurkat T cells were co-transfected with 1 µg of wild-type Nef-GFP clone and 200 ng of various Mortalin-scanning peptides. The cells were then placed in a 24-well plate and incubated at 37 °C for 24 h before being assayed for extracellular vesicle secretion. Cells were also co-transfected with SMRwt or SMRmut peptides as positive and negative controls, respectively. The amount of GFP fluorescence measured was equivalent to the amount of exNef-GFP in the extracellular media. […] The bar graphs display relative levels of exosome release. In here, asterisks (* p < 0.05, ** p < 0.005, *** p < 0.0005, and **** p < 0.00005) are used to indicate levels of statistical significance. The more asterisks, the stronger the statistical significance. Data represents the mean ± SD from three independent experiments.
Co-transfections of cells with peptides were carried out using Lipofectamine Reagent (Fisher Scientific), following the manufacturer’s protocol. One day prior to transfection, cells were trypsinized and plated at a density of 6.25 × 10^5 cells per well in 2 mL of complete growth medium. […] The cell transfection efficiency was calculated by counting the green, fluorescent cells using a fluorescence microscope.

DQLPADECNKLKEEISKMRE [#61, Mortalin scanning peptide 61]
inhibition of SMRwt–Vimentin binding, in words (Vimentin; listed as Mortalin #61): effectively compete with SMRwt to block its interaction with the Mortalin or Vimentin protein
inhibition of SMRwt–Vimentin binding, in words (Vimentin; listed as Mortalin peptide #61): inhibited SMRwt binding to both Mortalin and Vimentin; also recorded: completely blocks the 20 µM SMRwt from binding to both Vimentin and Mortalin; also recorded: completely inhibited complex formation between SMRwt and Vimentin
effect on Nef function (exNef-GFP secretion), in words ([1]; 1 µg Nef-GFP + 200 ng peptide, co-transfected, 37 °C, 24 h, GFP fluorescence, three independent experiments): significant reduction in exNef-GFP secretion; also recorded: inhibit Nef function
interaction with NefSMR domain / Nef / SMRwt peptide, in words ([1]; inferred from exNef secretion (Figures 2 and 3)): bind HIV-1 Nef and the SMRwt peptide; also recorded: can interact with the NefSMR domain; also recorded: bound the SMR domain and effectively inhibited Nef activity
